Test results reported in ChEMBL document CHEMBL3507680, “University of Dundee, Gates Library screen for HepG2 cell viability”.

Assay: Human HepG2 cell viability assay in 384 well format
Assay type: toxicity, cell-based
Set-up: dose 125 nL, time 70.5 hour; cytotoxicity at 70.5 h: concentration not given beside the values
Conditions: HepG2 cells, read-out: Inhibition

Compound	cytotoxicity at 70.5 h
CC(=O)N1CC[C@H]2CC(=O)N(Cc3ccc4c(c3)OCO4)CC[C@H]2C1	-3.96%
CCNC(=O)N1CC[C@H]2CC(=O)N(CCN3CCNC3=O)CC[C@H]2C1	-3.51%
CC(C)(C)CC(=O)N1CC[C@H]2CC(=O)N(CCc3c[nH]cn3)CC[C@H]2C1	-4.11%
COc1ccc(-c2noc([C@@H]3C[C@@H](O)CN3C3CCN(C)CC3)n2)cc1	-2.03%
COCC(=O)N[C@H]1C[C@H]2C(=O)NC[C@@H](CCC(=O)NC3CC3)N2C1	-2.9%
CN1C[C@H](O)C[C@H]1c1nc(-c2ccc3c(c2)OCO3)no1	-0.612%
CC(C)(C)c1cc(C[C@H]2CNCC[C@H]2CC(=O)N2CCCCC2)no1	-1.6%
CCN(CC)C(=O)CC[C@@H]1CNC(=O)[C@@H]2C[C@H](NC(=O)C3CC3)CN12	-2.96%
CCN(CC)CC[C@H]1CN(C(=O)CC(C)(C)C)CC[C@H]1CC(=O)O	-4.24%
CN1C[C@@H](NC(=O)CC(C)(C)C)C[C@H]1c1nc(-c2cnccn2)no1	-0.594%
O=C1N[C@@H]2CCN(C(=O)c3ccccc3)[C@@H]2C(=O)N1Cc1ccccc1	-5.37%
COCC(=O)N1CCN(C(=O)c2cccs2)[C@@H](C(=O)OC)C1	-5%
CC(=O)N1CC[C@H](c2nc3cc(C)ccc3o2)C1	0.212%
COC(=O)[C@@H]1Cc2ncn(C)c2CN1S(=O)(=O)c1cccs1	-1.34%
CN1C[C@@H](F)[C@@H](OCc2nc3ccccc3n2C)C1	-2.45%
FC(F)(F)c1ccc2[nH]c([C@H]3CCNC3)nc2c1	-2.06%
c1ccc(-c2noc([C@@H]3Cc4nc[nH]c4CN3)n2)cc1	-14%
CS(=O)(=O)c1ccc(-c2c[nH]c([C@@H]3COCCN3)n2)cc1	-8.19%
O=C([C@@H]1Cc2[nH]cnc2CN1CC1CC1)N1CCCC1	9.33%
COCC(=O)Nc1ccc(-c2noc([C@@H]3CCCN3C)n2)cn1	-7.79%
CS(=O)(=O)c1ccc(CN2C[C@@H]3OCC(=O)N(CC(N)=O)[C@@H]3C2)cc1	-4.08%
CC(=O)NC[C@H]1OC[C@@H](NC2CCC(F)(F)CC2)[C@@H]1O	-4.95%

Compound	cytotoxicity at 70.5 h
O=S(=O)(NC[C@H]1OC[C@@H](NCc2cccs2)[C@@H]1O)c1ccccc1	-10.7%
CC(C)NC(=O)N[C@H]1C[C@@H](c2nc(-c3ccncc3)no2)N(C)C1	-5.9%
CC(C)(C)CC(=O)NC[C@H]1OC[C@@H](NC2CCC(F)(F)CC2)[C@@H]1O	-5.07%
Cc1ccc(S(=O)(=O)NC[C@H]2OC[C@@H](NCc3ccncc3)[C@@H]2O)cc1	-8.05%
COc1ccc(-c2cn3c(n2)CO[C@@H](CNCc2nccn2C)C3)cc1	6.44%
F[C@@H]1CN(Cc2nccs2)C[C@@H]1OCc1nc2cnccc2[nH]1	-3.2%
Cc1cccc(CNC[C@H]2COCc3nc4cccnc4n32)n1	-9.5%
COc1ccc2c(c1)nc1n2[C@@H](CNCc2cnn(C)c2)COC1	-8.24%
CCc1ccc2occ(CC(=O)N3CCC4(CCCN(C)C4=O)C3)c2c1 (stereo unspecified)	-9.34%
Clc1cccnc1N1CCC(C2CCN(Cc3cccnc3)CC2)C1 (stereo unspecified)	25.7%
Cc1nn(C)c2nc(N(CCN(C)C)C3CCCC3)sc12	2.63%
O=C1CC(NCc2cccc(O)c2)CN1CCc1cccc(Cl)c1 (stereo unspecified)	14.8%
O=C(CCc1ccco1)N1CCC(Oc2ccccc2)(C(=O)O)CC1	2.91%
CCC(Nc1cccc(OC)c1)C(=O)NCc1nc(C)cc(=O)[nH]1 (stereo unspecified)	-5.76%
CCN(CC)Cc1cc(C(=O)N2CCC3(CCN(C)CC3)C2)c(C)o1	-14.5%
Cc1[nH]ccc1C(=O)N[C@H]1CN(CCO)C[C@@H]1C1CC1	-6.42%
CCc1cccc(OC2CN(C(=O)[C@@H](N)CCSC)C2)c1	-1.91%
CC(C)c1cc(=O)[nH]c(-c2ccccc2CN2CCCC2C)n1 (stereo unspecified)	-19.9%
Cc1ncc(CN2CCC(n3cc(-c4ccc(F)cc4)nn3)CC2)cn1	-2.17%
OCCc1ccccc1-n1ccnc1-c1cn(C2CCNCC2)nn1	27.2%
Cc1nc(N)cc(N2CCCC(COc3cccc(F)c3)C2)n1 (stereo unspecified)	-16.1%
Cn1ccc2c(-c3ccc(NCCO)nn3)ccnc21	-9.8%

Compound	cytotoxicity at 70.5 h
CCOc1ccc(CC(=O)N2C[C@H](C3CC3)[C@@H](N)C2)cc1	37.4%
O=C(CCn1cc(Cl)cn1)N1CCC2(CC1)[C@H](O)C[C@@H]2OCCO	-1.08%
CCC(CC)Cn1ncc(N2CCOCC2)cc1=O	-1.42%
O=C(C1CC1)N1CCC(C(=O)N2CCC(c3ccc(F)cc3)C2)CC1 (stereo unspecified)	8.64%
O=C(NCc1ccc2c(c1)CCCO2)c1ccc(C2CCNC2)cc1 (stereo unspecified)	-18%
Cc1ccc(O)c(C(=O)N2CCC3(CCCNC3)C2)c1 (stereo unspecified)	-7.79%
Cn1cccc1-c1cc(C(=O)N2CCCC2c2ccc(C(N)=O)s2)[nH]n1 (stereo unspecified)	-2.9%
Cc1cc2ccccc2n1CCC(=O)NCc1ncc[nH]1	-1.07%
CN(C)CC1(O)CCN(S(=O)(=O)c2ccc(F)cc2)C1 (stereo unspecified)	30.9%
CN(C)CC1(O)CCN(S(=O)(=O)c2ccc(F)c(F)c2)C1 (stereo unspecified)	32.6%
CCC(=O)NCCc1cc(N2CCN(C(C)=O)CC2)nc(C2CC2)n1	-1.36%
CNc1cc(CCNC(=O)c2cccnc2)nc(-c2ccncc2)n1	-7.53%
Cc1cc(C2CCCN(C(=O)c3cnn(C)c3)C2)ccn1 (stereo unspecified)	-8.77%
CNC(=O)c1ccc(C2CN(C(=O)c3cncs3)CCO2)nc1 (stereo unspecified)	-3.2%
Cc1cc(C2CCCN(C(=O)c3cnccn3)C2)ccn1 (stereo unspecified)	-0.249%
Cc1nc(C(=O)N2CCCC(c3cccc(-n4ccnc4)n3)C2)co1 (stereo unspecified)	4.94%
CCOCC(=O)N1C[C@@H](O)[C@H](N(C)Cc2ccc(OC)cc2)C1	-13.7%
O=C(Cn1c(=O)n(Cc2ccco2)c2ncccc21)Nc1ccccn1	-4.41%
Cn1ccc(C(=O)N2CCCC(Cc3cccc4ncccc34)C2)n1 (stereo unspecified)	35.2%
CN1CC[C@H](c2ccccc2)[C@@H]2[C@H]1CCCCN2C(=O)c1cnccn1	-8.44%
CCOCCCNc1nc(O)cc(C2CC(=O)N(C)C2)n1 (stereo unspecified)	24.8%
Cc1nc(C2CCN(C(=O)c3cccnc3)CC2)c2sccn12	0.00673%

Compound	cytotoxicity at 70.5 h
Fc1ccc(CN2CCC(c3n[nH]c4nccnc34)CC2)cc1F	7.75%
O=C1NCC2(CCCN(Cc3ccccc3F)C2)Oc2ccccc21 (stereo unspecified)	-14.5%
Cc1csc2c(=O)n3c(nc12)CCN(C(=O)c1cccnc1)CC3	-19.9%
NC(=O)C1CCCN(Cc2c(-c3ccco3)[nH]c3ncccc23)C1 (stereo unspecified)	-10.6%
CS(=O)(=O)N1CCC(C(=O)NC(Cc2ccsc2)c2nccs2)CC1 (stereo unspecified)	-20.6%
Fc1cccc(CN2CCC(c3n[nH]c4ncccc34)CC2)c1F	-9.75%
O=C(NC(Cc1ccsc1)c1nccs1)C1CCOCC1 (stereo unspecified)	-14.6%
Cc1ccc2cc(CNCCCN3CCOCC3)c(=O)[nH]c2c1	-13%
COCc1cc(O)nc(C2CCCN(Cc3cc(OC)ccc3F)C2)n1 (stereo unspecified)	-4.84%
CN(C)c1ncc(CN2CCC(c3nnsc3S(C)(=O)=O)CC2)cn1	-19.4%
Cc1ccsc1-c1nnc(C2CCN(Cc3ccc(F)cc3)CC2)o1	-21.5%
CN(C)Cc1ccnc(C2CCCN2Cc2cc[nH]n2)n1 (stereo unspecified)	-1.65%
Cc1ccccc1-c1cncc(C2CCN(C)CC2)n1	-14.3%
CO[C@H]1CN(C(=O)c2ccc3oc(C)cc3c2)CC[C@@]12CCCO2	-13.4%
O=C(COc1cccc(F)c1)N1C[C@@H](O)[C@H](N2CCCC2)C1	-10.1%
COc1cccc(OC)c1C(=O)N1CCN(c2ccccc2F)CC1	39%
CCc1cc(O)nc(C2CCCN2C(=O)c2cc(C)no2)n1 (stereo unspecified)	8.47%
CCc1cc(C(=O)N2CCCC2c2nc(C)c(F)c(O)n2)on1 (stereo unspecified)	4.3%
Nc1nc2nc(C3CCCN(C(=O)c4cscn4)C3)ccc2s1 (stereo unspecified)	9.1%
CNc1cccc(C2CCCN(C(C)=O)C2)n1 (stereo unspecified)	-19.3%
CCC(=O)N1CCCC1c1nccnc1Nc1nc(C)cc(C)n1 (stereo unspecified)	-14%
CN(Cc1ccc(F)cc1)[C@@H]1CN(C(=O)c2cccs2)C[C@H]1O	-17.9%

Compound	cytotoxicity at 70.5 h
CN(c1ccncn1)C1CC2(CCN(C(=O)c3ccsc3)C2)C1 (stereo unspecified)	-28.9%
NCc1cn(-c2ccccc2C(=O)NCc2cccc(Cl)c2)cn1	-13.7%
Cc1cccc(C(=O)N2CCC(Cc3cnc4[nH]ccc4c3)CC2)n1	-7.84%
Cc1cncc(C2CCCN(C(=O)c3c[nH]c(=O)[nH]c3=O)C2)n1 (stereo unspecified)	-22.8%
COc1cccc(S(=O)(=O)N2CCC(O)(CN(C)C)C2)c1 (stereo unspecified)	-19.7%
Cc1nc(O)c2nnn(C[C@H]3CCCN3C(=O)C(C)(C)C)c2n1	-13.1%
COc1ccc(CN2CCC3(CC(Nc4ccncn4)C3)C2)c(OC)c1 (stereo unspecified)	-6.97%
O=C1CN(Cc2ccc(-c3ccccc3C(=O)O)cc2)CCN1	37.1%
CNc1ccc(CC2CCCN(C(=O)c3cnc(C)nc3)C2)nn1 (stereo unspecified)	-6.58%
CC(=O)N1CCC(c2cc(C(F)(F)F)n3ccnc3n2)CC1	5.43%
Cc1cc(-c2ccc(C(=O)O)cc2)nc(C2CCCN(C(C)C)C2)n1 (stereo unspecified)	-9.15%
Cc1c(C2CCCN(C(=O)C3CC3)C2)n2c(nc1=O)CCC2 (stereo unspecified)	-3.86%
Cc1ccc(S(=O)(=O)N2CCc3nc(C4CCNCC4)ncc3C2)cc1	-8.7%
CCCC(=O)N1CCC(O)(Cn2c(CC)nc3ccccc3c2=O)CC1	-16.7%
COc1cccc(-c2noc(C3CCN(Cc4cccs4)C3)n2)c1 (stereo unspecified)	8.44%
CC(C)(C)C(=O)N1C[C@H](c2ccsc2)[C@H]2CN(Cc3cccs3)CC[C@H]21	0.661%
CNC(=O)[C@@H](c1ccccc1)N1CCC[C@H]1C(=O)NCc1cccnc1	-2.18%
Cc1ccc(CN(Cc2ccccn2)C2CC(C)(C)NC(C)(C)C2)s1	-7.96%
